From ChEMBL document CHEMBL1201862, “PubChem BioAssay data set” (2004)
Active and inactive are the calls of the source.

Tests used:
[1] = target: T1, Sentrin-specific protease 7 (Homo sapiens, UniProt Q9BQF6); format: functional;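 note: Luminescence-based dose-response confirmation of ultra-high-throughput screening hits, measuring inhibition of SENP7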
T1 sequence (Q9BQF6 whole entry): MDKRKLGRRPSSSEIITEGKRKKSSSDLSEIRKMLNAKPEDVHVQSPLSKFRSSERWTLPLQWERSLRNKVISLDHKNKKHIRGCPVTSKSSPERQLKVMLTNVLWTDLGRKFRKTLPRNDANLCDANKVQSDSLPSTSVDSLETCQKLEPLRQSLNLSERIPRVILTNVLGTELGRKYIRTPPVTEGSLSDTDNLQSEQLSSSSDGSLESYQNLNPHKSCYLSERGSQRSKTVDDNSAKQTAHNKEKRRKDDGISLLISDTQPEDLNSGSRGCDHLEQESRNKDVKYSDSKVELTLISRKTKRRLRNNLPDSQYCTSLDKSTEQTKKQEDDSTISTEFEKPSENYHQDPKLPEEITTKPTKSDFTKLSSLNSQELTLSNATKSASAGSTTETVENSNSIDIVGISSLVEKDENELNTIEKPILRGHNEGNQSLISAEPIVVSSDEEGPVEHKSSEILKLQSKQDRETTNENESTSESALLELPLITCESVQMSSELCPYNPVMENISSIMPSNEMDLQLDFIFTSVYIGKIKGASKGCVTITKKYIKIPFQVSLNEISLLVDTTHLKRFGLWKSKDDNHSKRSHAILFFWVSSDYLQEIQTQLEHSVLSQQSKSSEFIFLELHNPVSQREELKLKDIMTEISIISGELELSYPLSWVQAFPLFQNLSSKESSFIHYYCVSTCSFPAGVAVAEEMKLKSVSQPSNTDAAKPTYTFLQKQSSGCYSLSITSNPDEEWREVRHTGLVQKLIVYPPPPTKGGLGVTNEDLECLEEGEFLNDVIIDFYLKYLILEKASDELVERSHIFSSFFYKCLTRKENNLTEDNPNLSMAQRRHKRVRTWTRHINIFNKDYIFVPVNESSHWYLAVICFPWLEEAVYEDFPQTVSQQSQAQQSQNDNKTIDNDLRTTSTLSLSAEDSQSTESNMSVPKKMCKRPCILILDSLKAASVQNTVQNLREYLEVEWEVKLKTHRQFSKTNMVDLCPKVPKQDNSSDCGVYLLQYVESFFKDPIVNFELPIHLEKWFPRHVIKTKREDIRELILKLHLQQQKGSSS

[2] = Counterscreen for AddAB inhibitors: absorbance-based bacterial cell-based high throughput dose response assay for inhibitors of bacterial viability. [Related pubchem assays (depositor defined):AID435030, AID449728, AID449731, AID488942, AID488955, AID488956]; format: functional

Structure (SMILES) | IC50 [1] | IC50 [2]
CC(C)n1cnc2c(NCc3ccccc3)cc(OCC3CCN(C)CC3)cc21 | 5.65 µM (active) | –
CC(C)N(C(=O)Nc1ccc2nsnc2c1)C(C)C | 3.49 µM (active) | –
NS(=O)(=O)c1ccc(NC2=CC(=O)C(=O)c3ccccc32)cc1 | 7.93 µM (active) | –
O=C(N/N=C/c1ccc(O)cc1O)c1ccc(CN2C(=O)c3cccc4cccc2c34)cc1 | – | > 119 µM (inactive)
CCC(=O)NC(c1ccccc1OC)c1ccc2cccnc2c1O (stereo not given) | – | > 119 µM (inactive)
